Data from patent US20240252508A1, “Novel glucose uptake inhibitors for use in the treatment of cancer” (NOVELYEAST BV, priority 2021, published 2024).

Legend:
[1] = test system: KMS-12-PE multiple myeloma cells; assay: Steady-state glucose consumption and lactate production in KMS-12-PE cells; assay type: cell-based, human; settings: 25 μM, 1 mM glucose, 8 h
Description: The influence of WBC compounds on the steady-state glucose consumption rate was studied in the A549 adenocarcinoma and KMS-12-PE multiple myeloma cell lines. As such, different parameters needed to be optimized depending on whether cells were adherent or in suspension. As such, A549 cells were incubated at 125,000 cells/well in a 24-well plate in 300 μL RPMI medium for 8 h. For the KMS-12-PE cell line, 100,000 cells/well were incubated in 100 μL RPMI medium in a 96-well plate for 8 h. Medium was collected, spun down and HPLC-analyzed for measuring glucose and lactate levels. Metabolite levels were corrected for cell number, which always varied little over the span of 8 h. For every condition, at least 4 technical repeats were included.

[2] = test system: U266 multiple myeloma cell line; assay: U266 proliferation (cell count); assay type: cell-based, human; settings: 25 μM, 4 days, RPMI with 1 mM glucose
Description: a. Cell count of the U266 multiple myeloma cell line after 4 days of growth on RPMI medium with 1 mM glucose. Cells were treated with either DMSO or 25 μM of WBC-A, -15C, -4C or -11C. Glucose consumption (b.) or lactate secretion (c.) rates are shown for U266 cells incubated in RPMI medium supplemented with 1 mM glucose for 8 h.

tps1Δ cells = assay: Growth rescue of tps1Δ strain on glucose (growth curves, 2% galactose medium); assay type: cell-based, S. cerevisiae
Method in brief: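 tps1Δ yeast pregrown in Complete Synthetic medium with 2% galactose, washed, resuspended to OD 0.1; compounds added 10 min before glucose. Growth followed as OD595 every 30 min at 30 °C in at least three technical replicates.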

human GLUT1^V69M = molecular target: T1, human GLUT1^V69M (Homo sapiens, UniProt P11166, V69M); assay: Glucose uptake by GLUT1^V69M expressed in hxt^0 gal2Δ (RE700A) yeast; assay type: cell-based; settings: 2.5 mM glucose
T1 construct: HA (C); expressed in transfected cells; host or cells: S. cerevisiae RE700A (hxt0 gal2Δ), plasmid pFL38Kan-GLUT1^V69M (TEF1 promoter, low-copy)
T1 sequence (P11166 1-492 V69M): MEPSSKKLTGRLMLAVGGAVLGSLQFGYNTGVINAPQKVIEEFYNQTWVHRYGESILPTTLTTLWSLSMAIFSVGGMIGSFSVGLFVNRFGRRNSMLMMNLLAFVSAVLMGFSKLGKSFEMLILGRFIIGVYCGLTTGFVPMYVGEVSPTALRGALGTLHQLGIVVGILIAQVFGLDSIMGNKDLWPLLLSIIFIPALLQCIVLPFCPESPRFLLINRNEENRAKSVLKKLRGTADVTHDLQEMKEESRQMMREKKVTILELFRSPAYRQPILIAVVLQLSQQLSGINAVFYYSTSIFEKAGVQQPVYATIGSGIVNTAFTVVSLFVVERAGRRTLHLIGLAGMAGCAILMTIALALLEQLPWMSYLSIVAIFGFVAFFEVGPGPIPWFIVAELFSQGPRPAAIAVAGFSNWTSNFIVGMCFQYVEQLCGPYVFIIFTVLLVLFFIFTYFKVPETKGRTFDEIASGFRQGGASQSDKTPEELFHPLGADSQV
Source text: To assess whether WBC-A could inhibit glucose transport activity of the GLUT carriers, we expressed human GLUT1^V69M and GLUT4^V85M in a hxt^0 gal2Δ (RE700A) and hxt^0 erg4Δ (EBY.VW4000) strain, respectively. These strains are both deficient in glucose uptake due to absence of all active glucose transporters. For functional GLUT expression in yeast, specific mutations had to be introduced in both sequences, whereas for GLUT4, an additional ERG4 gene deletion was required^64,65,66.
Zero-trans uptake of radioactively labeled [U-^14C]glucose, [U-^14C]fructose or [U-^14C]galactose by S. cerevisiae cells was determined in accordance with previous studies^44,66. Cells were grown on different carbon sources depending on the experiment. For measuring glucose uptake activity in the tps1Δ and tps1Δ hxtA strains (FIG. 1b,c), cells were grown on YP medium containing 3% glycerol (measurement of 10s). Typically, for compound characterization and kinetic studies in wild type and tps1Δ strains, cells were (pre)grown on Complete Synthetic medium supplemented with 2% galactose (measurement of 10s). […] The loaded filter was transferred to a scintillation vial containing 3 mL liquid scintillation cocktail (Ultima-Flo M, Perkin Elmer) and counted using the Hidex 300 SL. […]

## Cc1nc(Sc2nnc3n2CCCCC3)c2c(-c3cccs3)csc2n1 [WBC-A]
[1]
  Glucose consumption and lactate production in KMS-12-PE cells: did not cause inhibition
[2]
  Proliferation of U266 cell line: inhibit proliferation
tps1Δ cells; 100 μM WBC-A, 5 mM glucose
  Rescue of tps1Δ growth on galactose in the presence of 5 mM glucose: rescued growth
tps1Δ cells; 100 μM WBC-A, 7.5 mM glucose
  Rescue of tps1Δ growth in the presence of 7.5 mM glucose: not able to restore growth
tps1Δ cells; 100 μM WBC-A, 2% galactose
  Growth of tps1Δ cells on galactose in the absence of glucose: significant growth delay
tps1Δ cells; 2.5 mM glucose
  Minimal rescue concentration for growth of tps1Δ cells on 2.5 mM glucose: 25 µM
Human GLUT1^V69M; 25 μM, hxt^0 gal2Δ strain
  Inhibition of glucose uptake by GLUT1^V69M at 25 μM: inhibited
Human GLUT1^V69M; hxt^0 gal2Δ (RE700A)
  IC50: 24 µM
